Data reported in US20260108526A1, “BIOMARKER FOR TREATMENT OF SOLID CANCER WITH IMIDAZO[4,5-b]PYRIDINE DERIVATIVE” (CHORDIA THERAPEUTICS INC., priority 2022, published 2026).

Assays:
[1] = test system: mouse-derived tumor BTG-M605 having MMTV-MYCC; experiment: Mouse subcutaneous transplantation model, MMTV-MYCC; format: in vivo; details: twice a week, day 14
Procedure: A tumor piece of the mouse-derived tumor BTG-M605 having MMTV-MYCC or the mouse-derived tumor BTG-R502 having MMTV-HRAS (both from Shanghai Medicilon Inc.) was subcutaneously transplanted into the abdomen of each female nude mouse. Calipers were used in measuring tumor volume, which was calculated from the calculation formula: tumor volume=(tumor major axis×tumor minor axis×tumor minor axis)/2. When the tumor volumes reached approximately 180 mm^3, the mice were grouped into four groups each consisting of eight mice. Compound A was orally administered in an intermittent manner according to a schedule in which a twice-daily dose of 12.5, 25, or 50 mg/kg was administered twice a week (on days 0, 4, 7, and 11) for 14 days. To a control group, 0.5% methylcellulose solution was orally administered. After the grouping, measurement of tumor volume was performed twice a week. T/C (%) on day 14 was used as an index of antitumor effect.

SK-N-DZ = experiment: Cell viability, neuroblastoma cell lines (CellTiter-Glo); format: cell-based; details: Homo sapiens, 96 h, MYCN gene amplification present, 4 days
Procedure: (§1) The neuroblastoma cell lines CHP-212, SK-N-BE(2), SK-N-DZ, LN-18, U-87 MG, and SW1088 were obtained from ATCC (American Type Culture Collection), and cultured with Dulbecco's modified Eagle's medium F-12 (DMEM-F12) supplemented with 10% FBS (both from Thermo Fisher Scientific, Walthman, MA) under conditions of 5% CO2 and 37° C. for use.
(§2) Each of the aforementioned six cell lines (4000 cells/90 μL for each case) was seeded in wells of a 96-well plate, and then 10 μL of medium containing DMSO alone or compound A (1 nM, 3 nM, 10 nM, 30 nM, 100 nM, 300 nM, 1000 nM, 3000 nM, and 10000 nM) was quickly added to give different final concentrations. After culturing for 4 days following the addition, the following evaluation of cell viabilities was carried out.
(§3) Evaluation of cell viabilities after different treatments was carried out by measuring intracellular adenosine triphosphate (ATP) with CellTiter-Glo. Specifically, 100 μL of CellTiter-Glo solution was added to each well, incubation was performed at room temperature for 15 minutes, and the chemiluminescence was then measured. The mean of each combination was calculated from the resulting data, and concentration response curves on cell viabilities as the emission intensity in the cells treated with DMSO alone was defined as 100% were drawn for single use or combined use of each agent.
(§4) The 50% inhibition concentration (IC50) of compound A was determined by using Graph Pad Prism software version 7.0 (GraphPad Software Inc.).

U-87MG = experiment: as above; format: cell-based; details: Homo sapiens, 96 h, MYCN gene amplification absent, 4 days
Procedure: as §1, §2, §3, §4

SW1088 = experiment: as above; format: cell-based; details: Homo sapiens, 96 h; SW1088, MYCN gene amplification absent, 4 days
Procedure: as §1, §2, §3, §4

SK-N-BE(2) = experiment: as above; format: cell-based; details: Homo sapiens, SKNBE2, 96 h, MYCN gene amplification present, 4 days
Procedure: as §1, §2, §3, §4

CHP-212 = experiment: as above; format: cell-based; details: Homo sapiens, 96 h; CHP-212, MYCN gene amplification present, 4 days
Procedure: as §1, §2, §3, §4

LN-18 = experiment: as above; format: cell-based; details: Homo sapiens, 96 h; LN-18, MYCN gene amplification absent, 4 days
Procedure: as §1, §2, §3, §4

[2] = test system: NCC_J-PDX_0293TG5 (large intestine cancer); experiment: Mouse subcutaneous transplantation model with human-cancer-patient-derived tumor; format: in vivo; details: NCC_J-PDX_0293TG5, MYCC CNV 2; oral 25 mg/kg twice daily, twice a week; day 14 or 28
Text: (§5) Among mouse subcutaneous transplantation models with different human-cancer-patient-derived tumors, which had been established by National Cancer Center Research Institute, seven models in total with five cancer species of ovarian cancer, lung cancer, gastric cancer, breast cancer, and large intestine cancer, were used for examination in the present test. For these models, results of measurement of MYCC gene amplification have been obtained by National Cancer Center Research Institute.
(§6) A tumor piece in the form of a 2- to 3-mm cube was subcutaneously transplanted into the abdomen of each 6- to 11-week-old female NOG mouse. Calipers were used in measuring tumor volume, which was calculated from the calculation formula: tumor volume=(tumor major axis×tumor minor axis×tumor minor axis)/2. When the tumor volumes reached approximately 140 to 230 mm^3, the mice were grouped into two groups each consisting of two to four mice. Compound A was orally administered in an intermittent manner according to a schedule in which a twice-daily dose of 25 mg/kg was administered twice a week for 14 or 28 days. To a control group, 0.5% methylcellulose solution was orally administered. After the grouping, measurement of tumor volume was performed twice a week. T/C (%) on day 14 or 28 was used as an index of antitumor effect.

[3] = test system: NCC_J-PDX_0735TG5 (ovarian cancer); experiment: as above; format: in vivo; details: NCC_J-PDX_0735TG5, MYCC CNV 3; oral 25 mg/kg twice daily, twice a week; day 14 or 28
Text: as §5, §6

[4] = test system: NCC_J-PDX_0189TG4 (non-small-cell lung cancer); experiment: as above; format: in vivo; details: NCC_J-PDX_0189TG4, MYCC CNV 4; oral 25 mg/kg twice daily, twice a week; day 14 or 28
Text: as §5, §6

[5] = test system: NCC_J-PDX_0034TG4 (non-small-cell lung cancer); experiment: as above; format: in vivo; details: NCC_J-PDX_0034TG4, MYCC CNV 2; oral 25 mg/kg twice daily, twice a week; day 14 or 28
Text: as §5, §6

[6] = test system: NCC_J-PDX_0047TG4 (breast cancer); experiment: as above; format: in vivo; details: NCC_J-PDX_0047TG4, MYCC CNV 2; oral 25 mg/kg twice daily, twice a week; day 14 or 28
Text: as §5, §6

[7] = test system: NCC_J-PDX_0569TG5 (ovarian cancer); experiment: as above; format: in vivo; details: NCC_J-PDX_0569TG5, MYCC CNV 8; oral 25 mg/kg twice daily, twice a week; day 14 or 28
Text: as §5, §6

[8] = test system: NCC_J-PDX_0009TG4 (gastric cancer); experiment: as above; format: in vivo; details: NCC_J-PDX_0009TG4, MYCC CNV 3; oral 25 mg/kg twice daily, twice a week; day 14 or 28
Text: as §5, §6

IC50 (SK-N-DZ): 25.4 nM
IC50 (U-87MG): 101 nM
IC50 (SW1088): 152 nM
IC50 (SK-N-BE(2)): 86.6 nM
IC50 (CHP-212): 65.9 nM
IC50 (LN-18): 106 nM
SMILES: COc1ncnn2ccc(-c3cnc4nc(C)n(Cc5nnc([C@@H](C)F)o5)c4c3)c12 [compound A]
T/C(%) ([1]; oral 12.5 mg/kg twice daily): 29.1%
T/C(%) ([1]; oral 25 mg/kg twice daily): 19.6%
T/C(%) ([1]; oral 50 mg/kg twice daily): 9.1%
T/C(%) [2]: −26.1%
T/C(%) [3]: −32.8%
T/C(%) [4]: −28.0%
T/C(%) [5]: −9.9%
T/C(%) [6]: −27.8%
T/C(%) [7]: −71.1%
T/C(%) [8]: −44.3%
